Results reported in patent US10774112B2, “Biomimetic peptide and biodegradable delivery platform for the treatment of angiogenesis- and lymphangiogenesis-dependent diseases” (THE JOHNS HOPKINS UNIVERSITY, priority 2013, dated 2020).

Tests used:
[1] = tested on: triple-negative breast cancer cell line SUM149; test: Proliferation assay (WST-1), SUM149; assay type: cell-based; conditions: in vitro; FIG. 7
Description: (§1) A colorimetric based proliferation assay using WST-1 (Roche, 11644807001) proliferation reagent was carried out using HREC cells, HUVEC cells, and the breast cancer cells MDA-MB-231, MCF-7, and SUM149. 2000 cells/well were plated in 96-well plates and allowed to adhere overnight. On the following day, the media was exchanged with fully supplemented media containing peptides or equivalent DMSO vehicle for the controls. Three days later, the media containing the peptides was replaced with serum-free EBM-2 media containing WST-1 reagent and the plates were incubated for four hours as per the manufacturer's recommendations. Changes in color, due to the formazan dye resulted from the cleavage of the tetrazolium salt WST-1 by the mitochondrial succinate-tetrazolium reductase, were read on a Victor V fluorescence plate reader (Perkin Elmer, Mass.) by measuring the absorbance at 450 nm. Dose response curves of percent live cells (in comparison to untreated cells, but incubated in complete media with 0.2% DMSO) were created. Assays were performed in at least two independent replicates and each replicate was performed using three experimental triplicates.

[2] = tested on: lymphatic endothelial cell (LEC); test: LEC adhesion assay; assay type: cell-based; conditions: FIG. 4
Description: (§2) Similar to the migration assays, the inhibition activity of the peptide in cellular adhesion was assessed using the RT-CIM technology. In this case, 25,000 cells/well were plated in 16 wells E-plates (Roche, Basel Switzerland) in the presence or absence of the peptide. The adhesion was monitored over time (3 hours) by measuring changes in the electrical impedance, which is a direct measure of the cells adhering on the electrodes. Assays were performed in at least two independent replicates and each replicate was performed using two experimental duplicates.

angiogenesis = test: Angiogenesis in vivo (lectin staining, IHC)
[3] = tested on: human umbilical vein endothelial cells (HUVEC); test: Adhesion assay (RT-CIM), HUVEC; assay type: cell-based; conditions: FIG. 1
Description: as §2

[4] = Accumulation in tumor and organs after systemic intravenous injection; assay type: in vivo; conditions: systemically intravenously injected; FIG. 31
[5] = tested on: triple-negative breast cancer cell line MDA-MB-231; test: Proliferation assay (WST-1), MDA-MB-231; assay type: cell-based, human; conditions: in vitro; FIG. 7
Description: as §1

[6] = tested on: lymphatic endothelial cell (LEC); test: LEC tube formation assay; assay type: cell-based; conditions: FIG. 5
[7] = tested on: human retinal endothelial cells (HREC); test: Adhesion assay (RT-CIM), HREC; assay type: cell-based; conditions: FIG. 2
Description: as §2

neovascularization = test: Neovascularization in a rabbit model; assay type: in vivo; conditions: day 34 following intravitreal injection into rabbit eyes; FIG. 26
MDA-MB-231-luc tumors = test: TCM-induced metastasis model; assay type: in vivo, mice
Description: TCM-Induced Metastasis Model.
Before tumor inoculation, athymic nude mice (female 5-6 weeks, 18-20 g) were treated with 50 μL TCM or SFM subcutaneously through the scruff for 2 weeks. After 2 weeks of TCM treatment, MDA-MB-231-luc-D3H2LN tumor xenografts were established in the same animals; the cells (2×10^6) were mixed with 50 μL complete media (RPMI-1640 supplemented with 10% FBS), and 50 μL Matrigel (High Concentrated, BD Biosciences) and injected into the upper inguinal mammary fat pad of the animals under anesthesia (50 mg/kg ketamine+5 mg/kg acepromazine in PBS, 50 μL/animal, intraperitoneally dosed). The primary tumor size was measured by using a caliper, and the volume w calculated, using the formula: V=0.52×a×b^2, where ‘a’ is the long axis, and ‘b’ is the short axis of the tumor. Animals were also imaged every week to track anterior tumor metastases, using the IVIS Xenogen 200 optical imager (Xenogen, Alameda, Calif.) after intraperitoneal injection of d-luciferin (Caliper 150 mg/kg). 100 μL D-luciferin (twice diluted) was intraperitoneally dosed on both sides of the abdomen (total 200 μL/animals) to prevent i.p. injection failure. […] Luciferase-mediated photon flux was quantified by using Living Image® 3D Analysis (Xenogen), and the average photon flux was obtained from eight lungs, eight brains, and 14-16 LNs as described before. […]

[8] = tested on: insulin growth factor 1 (IGF1) signaling; test: IGF1 signaling in vitro in MEC; assay type: cell-based; conditions: FIG. 6
vascular leakage = test: Vascular leakage in Tet/Opsin/VEGF mouse model; assay type: in vivo, mice; conditions: FIGS. 15A-B
Description: Vascular Permeability in Mouse Eyes:
Mice were injected intravitreally with 1 μg of SP2043 (SEQ ID NO: 1) in one eye, and vehicle in the fellow eye and vehicle control was injected in the other eye of adult double transgenic Tet/Opsin/VEGF mice. Three days later, the mice were given 2 mg/mL doxycycline in the drinking water for 3 days. At that time the animals were anesthetized and their pupils dilated as for standard fundoscopy. The eyes were examined to compare the number of animals that had retinal detachments under the two treatments by fundus imaging using Micron II retinal imaging and optical coherence tomography imaging using published protocols.

[9] = tested on: MDA-MB-231 orthotopic tumors; test: MDA-MB-231 orthotopic tumor xenografts in SCID mice; assay type: in vivo; conditions: 33 days, 20 mg of SP2043/kg, intraperitoneal injection, FIG. 9
Description: Orthotopic breast tumors were initiated in SCID mice using human triple-negative breast cancer cells MDA-MB-231. 2×10^6 cells per 100 μL aliquot of single cell suspension were injected in the breast mammary fat pad. Tumors reached volumes of 75-100 mm^3 in approximately 14-21 days. Mice were randomized and arranged in groups (8 mice per group) with similar tumor volumes (no statistical difference among averages) and treatment was commenced. […] Tumors were measured every fourth day using calipers and the tumor volume was calculated using the formula V=ab^2/2, where “a” is the larger and “b” is the smaller diameter.

[10] = tested on: human umbilical vein endothelial cells (HUVEC); test: Proliferation assay (WST-1), HUVEC; assay type: cell-based; conditions: FIG. 1
Description: as §1

## LRRFSTAPFAFIDINDVINF (Artificial sequence based on human Collagen Type IV protein) [SP2043]
[1]
  proliferation of SUM149: inhibit
[2]
  lymphatic endothelial cell adhesion: inhibit
angiogenesis; FIG. 10
  angiogenesis in vivo: inhibit
angiogenesis; FIG. 11
  angiogenesis as seen by lectin staining for IHC: inhibited
[3]
  adhesion of HUVEC: inhibit
[4]
  accumulation in tumor and other organs: accumulated in tumor as well as other organs
[5]
  proliferation of MDA-MB-231: inhibit
[6]
  LEC tube formation: inhibit
[7]
  adhesion of HREC: inhibit
neovascularization
  neovascularization in a rabbit model: Inhibition
MDA-MB-231-luc tumors; FIG. 12B
  metastasis of MDA-MB-231-luc tumors to lymph nodes, vimentin antibody staining for human cells: inhibited
MDA-MB-231-luc tumors; tumor-conditioned media pre-treated metastasis model, FIG. 12A
  metastasis of MDA-MB-231-luc tumors to multiple organs, photon flux from tumor cells: inhibited
[8]
  IGF1 signaling in MEC: inhibit
Vascular leakage
  vascular leakage in Tet/Opsin/VEGF mouse model: inhibited
[9]
  inhibition of tumor growth: about 82%
[10]
  proliferation of HUVEC: inhibit
